Data reported in article PMC3101196, “Trapping Conformational States Along Ligand-Binding Dynamics of Peptide Deformylase: The Impact of Induced Fit on Enzyme Catalysis” (PLoS Biology, 2011).
Where “and” joins values, the source holds several entries; their conditions need not be identical. Equal entries are not always repeated.

Legend:
[1] = target: T1, AtPDF (Arabidopsis thaliana, UniProt Q9FUZ2); test: PDF activity assay coupled to formate dehydrogenase (NADH absorbance at 340 nm)
Protocol: (§1) Assay of PDF activity was coupled to formate dehydrogenase, where the absorbance of NADH at 340 nm was measured at 37°C as previously described. […] The kinetics parameters were derived from iterative non-linear least square calculations using the Michaelis-Menten equation based on the experimental data (Sigma-Plot; Kinetics module). […] The data were then calculated according to the method of Henderson, which can be used to determine the dissociation constant of the tight-binding competitive enzyme inhibitor [28],[49],[72] by varying both the inhibitor and substrate concentrations. To determine K I, k 5, and k 6, the reaction was initiated by the addition of enzyme as previously described,[49]. […] From the set of values obtained at various concentrations of I, k5 and k6 could be derived using kobs = k6 + k5[I]/(KI + [I]).
(§2) The enzyme concentration used in the assay was 100 nM.

[2] = target: EcPDF (Escherichia coli, UniProt P0A6K3)
Protocol: as §1

[3] = target: AtPDF variant G41Q (Arabidopsis thaliana, UniProt Q9FUZ2, G121Q); test: PDF activity assay coupled to formate dehydrogenase
Protocol: as §1

[4] = target: T2, AtPDF variant G41M (Arabidopsis thaliana, UniProt Q9FUZ2, G121M); assay type: biochemical; conditions: nm = not measurable
T2 construct: Expression and purification of mature Arabidopsis thaliana PDF1B and all variants (i.e., AtPDF); made in house
Protocol: as §1

[5] = target: T3, AtPDF variant I42A (Arabidopsis thaliana, UniProt Q9FUZ2, I122A); test: biochemical
T3 construct: Expression and purification of mature Arabidopsis thaliana PDF1B and all variants (i.e., AtPDF); made in house
Protocol: as §1

[6] = target: T4, AtPDF variant I130A (Arabidopsis thaliana, UniProt Q9FUZ2, I210A); test: biochemical; conditions: for Ki: 100 nM enzyme
T4 construct: Expression and purification of mature Arabidopsis thaliana PDF1B and all variants (i.e., AtPDF); made in house
Protocol: as §1, §2

[7] = target: T5, AtPDF variant I42F (Arabidopsis thaliana, UniProt Q9FUZ2, I122F); test: biochemical; conditions: for Ki: 100 nM enzyme
T5 construct: Expression and purification of mature Arabidopsis thaliana PDF1B and all variants (i.e., AtPDF); made in house
Protocol: as §1, §2

[8] = target: T6, AtPDF variant I42N (Arabidopsis thaliana, UniProt Q9FUZ2, I122N); test: biochemical; conditions: for Ki: 100 nM enzyme
T6 construct: Expression and purification of mature Arabidopsis thaliana PDF1B and all variants (i.e., AtPDF); made in house
Protocol: as §1, §2

[9] = target: T7, AtPDF variant I42W (Arabidopsis thaliana, UniProt Q9FUZ2, I122W); test: biochemical; conditions: for Ki: 100 nM enzyme
T7 construct: Expression and purification of mature Arabidopsis thaliana PDF1B and all variants (i.e., AtPDF); made in house
Protocol: as §1, §2
Target sequence in this assay (Q9FUZ2 83-273 I122W): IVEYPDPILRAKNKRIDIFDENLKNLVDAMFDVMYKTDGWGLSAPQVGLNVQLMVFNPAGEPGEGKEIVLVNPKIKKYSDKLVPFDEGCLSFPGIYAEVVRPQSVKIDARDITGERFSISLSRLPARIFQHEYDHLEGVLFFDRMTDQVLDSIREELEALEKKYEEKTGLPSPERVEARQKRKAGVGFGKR

[10] = target: T2, AtPDF variant G41M; test: Isothermal titration calorimetry (ITC); assay type: binding
Protocol: (§3) ITC experiments were performed using a VP-ITC isothermal titration calorimeter (Microcal Corp.). Experiments were performed at 37°C. […] A theoretical titration curve was fitted to the experimental data using the ORIGIN software (Microcal). This software uses the relationship between the heat generated after each injection and ΔH° (enthalpy change in kcal/mol), K A (the association binding constant in M^−1), n (number of binding sites per monomer), total protein concentration, and free and total ligand concentrations. The thermal stability of the WT and variants of Ni-AtPDF1B was studied by DSC using VP-DSC calorimetry (Microcal Corp.). DSC measurements were made with 10 µM protein solutions in buffer C. […] The same buffer was used as a reference. All solutions were degassed just before loading into the calorimeter. Scanning was performed at 1°C/min. The temperature dependence of the partial molar capacity (Cp) was expressed in kcal/K after subtracting the buffer signal using Origin(R) software.
(§4) The volume of each reaction was 10 µl, and injections were made at 240 s intervals. Top, raw data from the titration. Each peak corresponds to the injection. Bottom, the peaks in the upper panel were integrated with ORIGIN software and the values were plotted versus injection number. Each point corresponds to the heat in µcal generated by the reaction upon each injection. The solid line is the curve fit to the data by the Origin program. This fit yields values for K d. Experiments were done with wild type protein and others variants, and gave similar raw data and curve fit. (A) WT; (B) variant G41M; (C) variant I42W. (EPS) Click here for additional data file.

[11] = target: T5, AtPDF variant I42F; test: Isothermal titration calorimetry (ITC); assay type: binding
Protocol: as §3, §4

[12] = target: T7, AtPDF variant I42W; test: Isothermal titration calorimetry (ITC); assay type: binding
Protocol: as §3, §4
Target sequence in this assay (Q9FUZ2 57-273 I122W): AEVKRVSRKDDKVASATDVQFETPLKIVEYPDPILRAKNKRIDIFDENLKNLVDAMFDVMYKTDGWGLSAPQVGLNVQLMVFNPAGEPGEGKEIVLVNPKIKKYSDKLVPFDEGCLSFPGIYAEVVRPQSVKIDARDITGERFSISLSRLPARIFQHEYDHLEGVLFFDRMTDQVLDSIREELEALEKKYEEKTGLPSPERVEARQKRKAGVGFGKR

[13] = target: T2, AtPDF variant G41M; test: Differential scanning calorimetry (DSC), thermal stability; assay type: binding
Protocol: as §3

[14] = tested on: T8, AtPDF variant G41Q; test: as above; assay type: binding, Arabidopsis thaliana
T8 construct: Expression and purification of mature Arabidopsis thaliana PDF1B and all variants (i.e., AtPDF); made in house
Protocol: as §3

[15] = tested on: almost all of the AtPDF variants; test: as above; assay type: binding, Arabidopsis thaliana
Protocol: as §3

[16] = tested on: AtPDF wild-type (WT) and G41M and G41Q; test: ΔΔGbinding calculated from Kd values; design: species or system Arabidopsis thaliana; conditions: calculated from the K d values for actinonin binding to WT and G41M and G41Q
Protocol: The percentage of the distance required to make a hydrogen bond (2.8 Å) is reported (dark squares). […] The values were calculated as follows. For the WT, it corresponds to the RT ln(KI*/KI) value, where R is the ideal gas constant and T is the temperature in Kelvin. RT is 0.616 kcal.mol^−1 at 37°C. For the G41M and G41Q variants, the ΔΔGbinding corresponds to RT ln(KI-G41variant/KD-WT). The obtained values are similar to that obtained if the kcat/Km substitutes the KD value in the calculation (ΔΔGbinding = RT ln(kcat/Km –G41variant/kcat/Km –WT). (EPS) Click here for additional data file.

[17] = target: T1, AtPDF; test: Isothermal titration calorimetry (ITC); assay type: binding; design: Expression and purification of mature Arabidopsis thaliana PDF1B and all variants (i.e., AtPDF); made in house; conditions: WT; from ITC (value in parentheses); 37°C
Protocol: as §3
The volume of each reaction was 10 µl, and injections were made at 240 s intervals. Top, raw data from the titration. Each peak corresponds to the injection. Bottom, the peaks in the upper panel were integrated with ORIGIN software and the values were plotted versus injection number. Each point corresponds to the heat in µcal generated by the reaction upon each injection. […]

[18] = target: T1, AtPDF; test: Differential scanning calorimetry (DSC), thermal stability; assay type: binding; design: Expression and purification of mature Arabidopsis thaliana PDF1B and all variants (i.e., AtPDF); made in house; conditions: 10 µM protein, 20 µM actinonin; free enzyme 61°C
Protocol: as §3

[19] = tested on: CSCC[C@H](NC=O)C(=O)N[C@@H](C)C(=O)N[C@@H](CO)C(=O)O; test: purified protein, by the assay type; conditions: other: G41Q, substrate Fo-Met-Ala-Ser, 100 nM enzyme, 750 µM NiCl2, 37°C
Protocol: The kinetics parameters were derived from iterative non-linear least square calculations using the Michaelis-Menten equation based on the experimental data (Sigma-Plot; Kinetics module). […] The data were then calculated according to the method of Henderson, which can be used to determine the dissociation constant of the tight-binding competitive enzyme inhibitor [28],[49],[72] by varying both the inhibitor and substrate concentrations. To determine K I, k 5, and k 6, the reaction was initiated by the addition of enzyme as previously described [29],[49]. […] From the set of values obtained at various concentrations of I, k5 and k6 could be derived using kobs = k6 + k5[I]/(KI + [I]).

[20] = substrate: CSCC[C@H](NC=O)C(=O)N[C@@H](C)C(=O)N[C@@H](CO)C(=O)O; test: purified protein, by the assay type; conditions: other: WT, substrate Fo-Met-Ala-Ser, 100 nM enzyme, 750 µM NiCl2, 37°C
Protocol: Assay of PDF activity was coupled to formate dehydrogenase, where the absorbance of NADH at 340 nm was measured at 37°C as previously described [71]. […] The kinetics parameters were derived from iterative non-linear least square calculations using the Michaelis-Menten equation based on the experimental data (Sigma-Plot; Kinetics module). […] The data were then calculated according to the method of Henderson, which can be used to determine the dissociation constant of the tight-binding competitive enzyme inhibitor [28],[49],[72] by varying both the inhibitor and substrate concentrations. To determine K I, k 5, and k 6, the reaction was initiated by the addition of enzyme as previously described [29],[49]. […] From the set of values obtained at various concentrations of I, k5 and k6 could be derived using kobs = k6 + k5[I]/(KI + [I]).

[21] = value is k5 multiplied by 10^3, no preincubation
[22] = value is k6 multiplied by 10^4, no preincubation
[23] = KI*app, 2 mM substrate, actinonin preincubated 10 min at 37°C
[24] = KI, no preincubation, started by adding enzyme

T2 sequence (Q9FUZ2 57-273 G121M): as the sequence (Q9FUZ2 57-273 I122W) above, with G65M, W66I counted along it
T6 sequence (Q9FUZ2 57-273 I122N): as the sequence (Q9FUZ2 57-273 I122W) above, with W66N counted along it
EcPDF, sequence (P0A6K3 whole entry): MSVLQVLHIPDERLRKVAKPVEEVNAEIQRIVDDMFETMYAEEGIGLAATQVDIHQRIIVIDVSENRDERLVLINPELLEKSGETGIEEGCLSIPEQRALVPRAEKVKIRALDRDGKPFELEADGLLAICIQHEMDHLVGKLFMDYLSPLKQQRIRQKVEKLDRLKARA
T5 sequence (Q9FUZ2 57-273 I122F): as the sequence (Q9FUZ2 57-273 I122W) above, with W66F counted along it
T4 sequence (Q9FUZ2 57-273 I210A): as the sequence (Q9FUZ2 57-273 I122W) above, with W66I, I154A counted along it
AtPDF variant G41Q (Arabidopsis thaliana, UniProt Q9FUZ2, G121Q), sequence (Q9FUZ2 83-273 G121Q): as the sequence (Q9FUZ2 83-273 I122W) above, with G39Q, W40I counted along it
T3 sequence (Q9FUZ2 57-273 I122A): as the sequence (Q9FUZ2 57-273 I122W) above, with W66A counted along it

`CCCCC[C@H](CC(=O)NO)C(=O)N[C@H](C(=O)N1CCC[C@H]1CO)C(C)C` [actinonin] was tested, and the Kd [1] was 0.9 nM, the Ki ([1]; K I*, enzyme 100 nM, actinonin preincubated with enzyme 10 min at 37°C, assay initiated by substrate) was 0.9 ± 0.5 nM and the Ki ([1]; KI*app, Wild-type, 100 nM enzyme, 2 mM substrate, actinonin preincubated 10 min at 37°C) was 2.3 ± 0.3 nM. For the same molecule, the “binding free energy difference between the two complexes” value ([1]; WT, RT ln(KI*/KI), 37°C) was 3.1 kcal/mol, the “k6 (s^-1) x 10^4” value ([1]; Wild-type, Table S3 (with KI*app), value is k6 multiplied by 10^4) was 10 ± 1 s^-1 x 10^4 and the “k4, dissociation of the primary enzyme-actinonin complex” value ([1]; assumes k3 = 10^9 M−1.s^−1 (diffusion-limited)) was 140 s⁻¹ and 140 ± 10 s⁻¹. The “k 5 (s^−1) ×10^3” value [1, 21] was 63±9 s^−1 ×10^3 and 63 ± 6 s^−1 ×10^3, the “k 6 (s^−1) ×10^4” value [1, 22] was 4±1 s^−1 ×10^4 and the “k4, dissociation of the primary enzyme-actinonin complex” value ([2]; assumes k3 = 10^9 M−1.s^−1) was 112 ± 10 s⁻¹. For the same molecule, the “k 5 (s^−1) ×10^3” value [2, 21] was 170±20 s^−1 ×10^3, the “k 6 (s^−1) ×10^4” value [2, 22] was 19±2 s^−1 ×10^4 and the Kd [3] was 48 nM. The “KI*app” value ([3]; G41Q, nm = not measurable) was “nM”, the “KI*app” value [4] was “nM” and the Kd [5] was 3 nM. For the same molecule, the Ki [6, 23] was 1.5 ± 0.4 nM, the Ki [6, 24] was 36 ± 5 nM and the “k5 (s^-1) x 10^3” value ([6]; value is k5 multiplied by 10^3) was 49 ± 5 s^-1 x 10^3. For the same molecule, the “k6 (s^-1) x 10^4” value ([6]; value is k6 multiplied by 10^4) was 21 ± 2 s^-1 x 10^4, the Kd [7] was 2.8 nM and the “k5 (s^-1) x 10^3” value ([7]; I42F, value is k5 multiplied by 10^3) was 89 ± 9 s^-1 x 10^3. For the same molecule, the “k6 (s^-1) x 10^4” value ([7]; I42F, value is k6 multiplied by 10^4) was 62 ± 6 s^-1 x 10^4, the Ki ([7]; KI*app, I42F, 2 mM substrate, actinonin preincubated 10 min at 37°C) was 2.8 ± 0.2 nM and the Ki ([7]; KI, I42F, no preincubation, started by adding enzyme) was 43 ± 5 nM. The Kd [8] was 6.3 nM, the “k5 (s^-1) x 10^3” value ([8]; I42N, value is k5 multiplied by 10^3) was 52 ± 5 s^-1 x 10^3 and the “k6 (s^-1) x 10^4” value ([8]; I42N, value is k6 multiplied by 10^4) was 101 ± 10 s^-1 x 10^4. It also gave a Ki ([8]; KI*app, I42N, 2 mM substrate, actinonin preincubated 10 min at 37°C) of 6.3 ± 0.4 nM, a Ki ([8]; KI, I42N, no preincubation, started by adding enzyme) of 39 ± 4 nM and a Ki [9, 23] of 2.8 ± 0.4 nM. The Ki [9, 24] was 97 ± 6 nM, the “k5 (s^-1) x 10^3” value ([9]; value is k5 multiplied by 10^3) was 52 ± 5 s^-1 x 10^3 and the “k6 (s^-1) x 10^4” value ([9]; value is k6 multiplied by 10^4) was 16 ± 2 s^-1 x 10^4. For the same molecule, the Kd [10] was 32 nM, the Kd [11] was 3.6 nM and the Kd [12] was 3.7 nM. The “increase in the T m by actinonin” value [13] was 12 °C, the “increase in the T m by actinonin” value [14] was 12 °C and the “increase of T m by actinonin” value [15] was “more than 20 °C”. For the same molecule, the ΔΔGbinding [16] was 2.2 to 2.4 kcal/mol, the Kd [17] was 4.5 nM and the “T m of AtPDF upon binding of the inhibitor” value [18] was 81 °C.

“AtPDF variant G41Q (Arabidopsis thaliana; G121Q)” was tested, and the Km [19] was 6.7 ± 1.7 mM, the kcat [19] was 0.14 ± 0.02 s⁻¹ and the kcat/Km [19] was 20 ± 10 M⁻¹ s⁻¹.

B1: AtPDF (Arabidopsis thaliana) (protein)
chain: AEVKRVSRKDDKVASATDVQFETPLKIVEYPDPILRAKNKRIDIFDENLKNLVDAMFDVMYKTDGIGLSAPQVGLNVQLMVFNPAGEPGEGKEIVLVNPKIKKYSDKLVPFDEGCLSFPGIYAEVVRPQSVKIDARDITGERFSISLSRLPARIFQHEYDHLEGVLFFDRMTDQVLDSIREELEALEKKYEEKTGLPSPERVEARQKRKAGVGFGKR
B1 showed a Km [20] of 6.5 ± 0.7 mM, a kcat [20] of 37 ± 2 s⁻¹ and a kcat/Km [20] of 5700 ± 600 M⁻¹ s⁻¹.
